Data on two compounds can be found in patent US8507219B2, “Method of treating inflammation with statins” (MUSC Foundation for Research Development, priority 1997, dated 2013).

Data set [1] concerns IL-1β production in rat primary astrocytes. The data set is described as follows: LPS-induced IL-1β production (ELISA) in rat primary astrocytes. The data set is classed as cell-based. The note with it: forskolin 10 μM; 8-Br-cAMP 100 μM; rolipram 20 μM; H-89 2 μM; myristoylated PKI 0.4 μM. As to the method:
(§1) Determination of TNF-α and IL-1β in culture supernatants Cells were stimulated with LPS in serum-free media for 24 h in the presence or absence of forskolin or rolipram, and concentrations of TNF-α and IL-1β were measured in culture supernatants by using high-sensitivity enzyme-linked immunosorbent assay (R&D Systems, USA) according to the manufacturer's instructions.
In general terms: ELISA stands for enzyme-linked immunosorbent assay.

The conditions of data set [2]: inferred from reports in mice and marmoset (Sommer et al., 1995); cited from earlier work.
Data set [3] concerns cultured skin fibroblasts of X-ALD. The data set is described as follows: VLCFA ratios (C26:0/C22:0, C24:0/C22:0) in X-ALD skin fibroblasts. It counts as cell-based, human.
Data set [4] deals with IL-1β production in rat primary microglia. The data set is described as follows: LPS-induced IL-1β production (ELISA) in rat primary microglia. It counts as cell-based. The note with it: 10 μM forskolin or 20 μM rolipram 15 min, then LPS 1.0 μg/ml, 24 h. As to the method: as §1
For data set [5], the system named is TNF-α production in rat primary astrocytes. The data set is described as follows: LPS-induced TNF-α production (ELISA) in rat primary astrocytes. The data set is classed as cell-based. As to conditions: forskolin 10 μM; 8-Br-cAMP 100 μM; rolipram 20 μM; H-89 2 μM; myristoylated PKI 0.4 μM. As to the method: as §1
Data set [6] relates to cultured skin fibroblasts of X-ALD. Description: β-oxidation of lignoceric acid in cultured skin fibroblasts of X-ALD. It counts as cell-based, human.
Data set [7] deals with TNF-α production in rat primary microglia. Description: LPS-induced TNF-α production (ELISA) in rat primary microglia. The data set is classed as cell-based. The note with it: 10 μM forskolin or 20 μM rolipram 15 min, then LPS 1.0 μg/ml, 24 h. As to the method: as §1
Data set [8] concerns PKA. The data set is described as follows: PKA activity (Kemptide phosphorylation) in rat primary astrocytes. As to conditions: optimal concentration of forskolin, LPS 1.0 μg/ml, 1 h; taken as 100%. It counts as cell-based.
Data set [9] concerns iNOS activity in rat primary astrocytes. Description: iNOS activity (arginine to citrulline) in homogenates of treated rat primary astrocytes. It counts as cell-based. The note with it: Rattus norvegicus, Astrocyte, LPS 1 μg/ml, 24 h. As to the method:
NOS activity was measured directly by production of L-[2,3,4,5-^3H]citrulline from L-[2,3,4,5-^3H] arginine (Feinstein et al., 1994a). […] Assays were carried out for 30 to 40 min and the production of L-[2,3,4,5-^3H] citrulline was linear. The reactions were stopped by addition of 800 μl of ice-cold 20 mM HEPES (pH 5.5) followed by addition of 2 ml of Dowex-50W equilibrated in the same buffer. The samples were then centrifuged and the concentration of L-[^3H]citrulline was determined in the supernatant by liquid scintillation counting.
Dose Dependence of Forskolin Inhibition of the LPS Stimulation of iNOS Astrocytes were incubated with different concentrations of forskolin 15 min before the addition of 1 μg/ml LPS, and after 24 h the iNOS activity was measured as nitrite concentrations in the supernatant and conversion of arginine to citrulline in the cellular homogenates (FIG. 1). The level of nitrite and iNOS activity were inhibited to a similar degree at all the concentrations of forskolin tested. […] . […] This may be due to the fact that PKA was already completely activated in extracts of cells incubated with 10 μM forskolin. The PKA activity increased with the increase in forskolin concentration. The reciprocal relationship of production of NO and iNOS activity with PKA activity supports the conclusion that PKA plays a pivotal role in the regulation of iNOS expression in astrocytes.

For data set [10], the system named is control skin fibroblasts. Description: VLCFA ratios in control skin fibroblasts. It counts as cell-based, human. As to conditions: two weeks forskolin. Here is the method: Measurement of VLCFA in Fibroblasts Fatty acid methyl ester (FAME) was prepared as described previously by Lepage and Roy (1986) with modifications. Fibroblast cells, suspended in HBSS, were disrupted by sonication to form a homogeneous solution. An aliquot (200 μl) of this solution was transferred to a glass tube and […] heptacosanoic (27:0) acid was added as internal standard and lipids were extracted by Folch partition. Fatty acids were transesterified with acetyl chloride (200 μl) in the presence of methanol and benzene (4:1) for 2 h at 100° C. The solution was cooled down to room temperature followed by addition of 5 ml 6% potassium carbonate solution at ice-cooled temperature. Isolation and purification of FAME were carried out as detailed by Dacremont et al. (1995). […]

Data set [11] concerns control human skin fibroblasts. The data set is described as follows: β-oxidation of lignoceric acid in control human skin fibroblasts. The data set is classed as cell-based. As to conditions: 72 h; forskolin 4 μM; 1,9 dideoxy forskolin 4 μM; 8-Br-cAMP 50 μM; H-89 1 μM; myristoylated PKI 0.2 μM; Control 565.2 ± 48.3.

For the compound `COc1ccc(C2CNC(=O)C2)cc1OC1CCCC1` (centres unmarked) [Rolipram], the “LPS-stimulated production of IL-1β” value in data set [1] is listed as “inhibited the LPS-stimulated production”. Also, in data set [2], the “crossing of the blood brain barrier” value is recorded as “does cross the blood brain barrier”. Also, the “ratios of C26:0/C22:0 and C24:0/C22:0 / level of VLCFA” value in data set [3] (about 15 days of treatment) is given as “normalized the levels of VLCFA in these cell lines”. The “Production of IL-1β” value in [4] was 2.3 ± 0.3 ng/24 h/mg protein. Besides, in [5], the “LPS-stimulated production of TNF-α” value is “inhibited the LPS-stimulated production”. The “Lignoceric acid β-oxidation” value in data set [6] (72 h, forskolin 4 μM, 8-Br-cAMP 50 μM, rolipram 10 μM, H-89 1 μM, myristoylated PKI 0.2 μM) is listed as “stimulated lignoceric acid β-oxidation”. The “increase of the oxidation of lignoceric acid” value in [6] (rolipram, two weeks, X-ALD fibroblasts with mutation or deletion) is listed as 50 to 65%. For the same compound, the “Production of TNF-α” value in data set [7] worked out at 1.2 ± 0.09 ng/24 h/mg protein.

One may read the inhibition as the share of the control response that was lost under treatment. A higher inhibition goes with a strong effect. In [8], `C=C[C@@]1(C)CC(=O)[C@]2(O)[C@@]3(C)[C@@H](O)CCC(C)(C)[C@@H]3[C@H](O)[C@H](OC(C)=O)[C@@]2(C)O1` [forskolin] yielded a PKA activity of 74.4 ± 9.4 pmol/min/mg. The “days of treatment until the ratios of C26:0/C22:0 and C24:0/C22:0 decreased to the normal level” value in data set [3] (X-ALD fibroblasts, forskolin 4 μM, lovastatin 5 μM, combination of lovastatin and NaPA) fell in the range of 12 to 15 days. Moreover, the “Production of IL-1β” value in data set [4] amounted to 1.9 ± 0.2 ng/24 h/mg protein. The same compound yielded an inhibition at 0.1 µM in data set [9] (forskolin 0.1 μM (lowest dose with significant effect)) of 30%. For the same compound, in data set [9] (forskolin 10 μM), the inhibition at 10 µM was roughly 90%. For the same compound, the “ratio of C26:0/C22:0” value in [10] (from 0.04) stood at 0.029. Further, in data set [10] (from 1.23), the “ratio of C24:0/C22:0” value was 1.12. The “Lignoceric acid β-oxidation” value in data set [11] came out at 885.3 ± 62.1 pmol/h/mg protein. The “Production of TNF-α” value in data set [7] is given as 0.9 ± 0.1 ng/24 h/mg protein.
